Reference: patent US12331264B2, “Lipid nanoparticles for delivery of nucleic acids and methods of use thereof” (Akagera Medicines, Inc., priority 2020, dated 2025)

Key:
[1] = Apparent pKa of ionizable lipid in LNP by TNS fluorescence; conditions: pH 3, probe TNS (2-(p-toluidino)-6-naphthalene sulfonic acid)
[2] = Accelerated oxidation of ICLs with H2O2/Fe(III)Cl, UHPLC-CAD; assay type: physicochemical; conditions: for % of parent lipid peak at time 0, 24 h / % of parent lipid peak at time 0, 48 h / % of parent lipid peak at time 0, 72 h: Table 14, ICL lipid suspensions, 1% H2O2/100 μM Fe(III)Cl, 37° C.; for degradation: after 48 hours of incubation with hydrogen peroxide
Experimental: Individual lipid stocks (10 mM) were prepared in ethanol and stored at −20° C. […] Liposomal formulations based on AKG-UO-1 and O-11769 ionizable cationic lipids (Table 12) were prepared by combining lipid mixtures of desired composition in 1 mL ethanol with 3 mL 6.25 mM sodium acetate, pH 5.0 at 6 mL/min on a NanoAssemblr (Precision Nanosystems). 3.6 mL of the mixture was retained, while the initial 0.35 mL of the mixture and final 0.05 mL were discarded. Ethanol was removed by buffer exchange into PBS, pH 7.4 by concentrating each liposome preparation using an Aminon-Ultra 4 centrifugal concentrator at 500 g for 10 min at 4° C. and diluting back to the original volume with PBS. This cycle was repeated multiple times until the ethanol concentration was <1%. Finally, liposomes were sterile filtered through 0.2 μm PES (Nalgene) syringe filters and size measured by a ZetaSizer (Malvern).
Aliquots of the liposomal formulations were stored at −80° C. and thawed before the experiment. A combined stock in water of 10% H2O2 (Sigma-Aldrich, cat #H1009) and 1 mM of Fe(III)Cl (Sigma-Aldrich, cat #372870) was freshly prepared prior to the treatment. To make 1% final concentration of H2O2 and 100 μM Fe(III)Cl, 10 μl of 10% H2O2/1 mM Fe(III)Cl stock was added to 90 μl of both liposomal formulations and individual lipids The liposomes and individual lipids were incubated with H2O2/Fe(III)Cl at 37° C. and then 5 μl from each sample was taken at different time points (0, 3, 24, 48 and 72 hours) and dissolved in 90 μl of MeOH for HPLC analysis. Degradation of the main lipid peak was analyzed using Thermo Scientific Vanquish Flex UHPLC occupied with Charged Aerosol Detector (CAD) and Thermo Scientific Accucore™ C18+ UHPLC column (L=50 mm, D=2.1 mm, Particle Size=1.5 μm).
The data are presented as a percentage of the main lipid peak measured at different time points relative to the lipid peak measured at time zero.

physchem = conditions: pH 3

Row | Structure (SMILES) | pKa [1] | other results
1 | CCCCC/C=C\CCCC/C=C\CCCCCC(CCCCC/C=C\CCCC/C=C\CCCCC)OC(=O)CCCN(CC)CC [Compound 11] | 6 to 7 | –
2 | CCCCC/C=C\C/C=C\CCCCCCCCC1(CCCCCCCC/C=C\C/C=C\CCCCC)OCC(CCCN(C)C)O1 (stereo not drawn) [KC3, Dlin-KC3-DMA] | – | % of parent lipid peak at time 0, 24 h [2]: 46 ± 1.8%; % of parent lipid peak at time 0, 48 h [2]: 1 ± 0.2%; % of parent lipid peak at time 0, 72 h [2]: 0 ± 0.0%; degradation [2]: fully degraded
3 | CC(C)CCC[C@@H](C)[C@H]1CCC2[C@@H]3CC=C4CC(SSCCCCN(C)C)CC[C@]4(C)[C@H]3CC[C@@]21C (stereo partly drawn) [Compound 36] | – | pKa (physchem): 6 to 7
4 | CCC/C=C\CCCC/C=C\CCCCC(=O)OC[C@H](COP(=O)(OC)OCCCN(CC)CC)OC(=O)CCCC/C=C\CCCC/C=C\CCC (stereo partly drawn) [Compound 27] | 6 to 7 | –
5 | CCC/C=C\CCCC/C=C\CCCCCC1(CCCCC/C=C\CCCC/C=C\CCC)OCC(CCCN(C)C)O1 (stereo not drawn) [Compound 8] | 6 to 7 | –
6 | CCCCCCCC/C=C\CCSSCCCC(=O)OC[C@H](CCN(C)C)OC(=O)CCCSSCC/C=C\CCCCCCCC [Compound 33] | 6 to 7 | –
7 | CCCCCCCC/C=C\CCSSCCCCC1(CCCCSSCC/C=C\CCCCCCCC)OCC(CCN(C)C)O1 (stereo not drawn) [Compound 29] | 6 to 7 | –
8 | CCCCCC/C=C\CCCCCCCCC(CCCCCCCC/C=C\CCCCCC)OC(=O)CCCN(C)C [Compound 13] | 6 to 7 | –
9 | CCCCC/C=C\CCCC/C=C\CCCCCC1(CCCCC/C=C\CCCC/C=C\CCCCC)OCC(CCCN(C)C)O1 (stereo not drawn) [Compound 3] | 6 to 7 | –
10 | CCCCC/C=C\CCCC/C=C\CCCCC(=O)OC[C@H](CCN(C)C)OC(=O)CCCC/C=C\CCCC/C=C\CCCCC [UO-1] | – | % of parent lipid peak at time 0, 24 h [2]: 78 ± 0.6%; % of parent lipid peak at time 0, 48 h [2]: 74 ± 0.1%; % of parent lipid peak at time 0, 72 h [2]: 65 ± 2.5%
11 | CCCCCC/C=C\CCSSCCCC(=O)OC[C@H](CCN(C)C)OC(=O)CCCSSCC/C=C\CCCCCC [Compound 34] | 6 to 7 | –
12 | CCCCC/C=C\C/C=C\CCCCCCCCC1(CCCCCCCC/C=C\C/C=C\CCCCC)OCC(CCN(C)C)O1 (stereo not drawn) [KC2, DLin-KC2-DMA] | – | % of parent lipid peak at time 0, 24 h [2]: 35 ± 0.7%; % of parent lipid peak at time 0, 48 h [2]: 6 ± 1.9%; % of parent lipid peak at time 0, 72 h [2]: 0 ± 0.0%; degradation [2]: fully degraded
13 | CCC/C=C\CCCC/C=C\CCCCC(=O)OC[C@H](COP(=O)(OC)OCCCN(C)C)OC(=O)CCCC/C=C\CCCC/C=C\CCC (stereo partly drawn) [Compound 26] | 6 to 7 | –
14 | CCCCC/C=C\C/C=C\CCCCCCCC(=O)OC[C@H](CCN(C)C)OC(=O)CCCCCCC/C=C\C/C=C\CCCCC [Compound O-11769] | – | % of parent lipid peak at time 0, 24 h [2]: 31 ± 0.9%; % of parent lipid peak at time 0, 48 h [2]: 1 ± 0.2%; % of parent lipid peak at time 0, 72 h [2]: 0.3 ± 0.1%; degradation [2]: fully degraded
15 | CC/C=C\CCCC/C=C\CCCCCCCC(=O)OC[C@H](COP(=O)(OC)OCCCCN(C)C)OC(=O)CCCCCCC/C=C\CCCC/C=C\CC (stereo partly drawn) [Compound 22] | 6 to 7 | –
16 | CCCCCC/C=C\CCSSCCCCC(CCCCSSCC/C=C\CCCCCC)OC(=O)CCCN(C)C [Compound 32] | 6 to 7 | –
17 | CCCCC/C=C\CCCC/C=C\CCCCCC1(CCCCC/C=C\CCCC/C=C\CCCCC)OC[C@H](CCCN(C)C)O1 [KC3-01, 3-((S)-2,2-di((6Z,12Z)-octadeca-6,12-dien-1-yl)-1,3-dioxolan-4-yl)-N,N-dimethylpropan-1-amine] | – | % of parent lipid peak at time 0, 24 h [2]: 83 ± 4.3%; % of parent lipid peak at time 0, 48 h [2]: 80 ± 0.4%; % of parent lipid peak at time 0, 72 h [2]: 74 ± 2.2%
18 | CC(C)CCC[C@@H](C)[C@H]1CCC2[C@@H]3CC=C4CC(SSCCCN(C)C)CC[C@]4(C)[C@H]3CC[C@@]21C (stereo partly drawn) [Compound 35] | – | pKa (physchem): 6 to 7
19 | CC/C=C\CCCC/C=C\CCCCCCCC(=O)OC[C@H](COP(=O)(OC)OCCCN(CC)CC)OC(=O)CCCCCCC/C=C\CCCC/C=C\CC (stereo partly drawn) [Compound 21] | 6 to 7 | –
20 | CCC/C=C\CCCC/C=C\CCCCC(=O)OC[C@H](COP(=O)(OC)OCCCCN(C)C)OC(=O)CCCC/C=C\CCCC/C=C\CCC (stereo partly drawn) [Compound 28] | 6 to 7 | –
21 | CCCCC/C=C\CCCC/C=C\CCCCCC1(CCCCC/C=C\CCCC/C=C\CCCCC)OCC(CCN(C)C)O1 (stereo not drawn) [Compound 1] | 6 to 7 | –
22 | CCC/C=C\CCCC/C=C\CCCCCC1(CCCCC/C=C\CCCC/C=C\CCC)OCC(CCN(CC)CC)O1 (stereo not drawn) [Compound 7] | 6 to 7 | –
23 | CCCCCC/C=C\CCSSCCCCC1(CCCCSSCC/C=C\CCCCCC)OCC(CCN(C)C)O1 (stereo not drawn) [Compound 30] | 6 to 7 | –
24 | CCCCCCCC/C=C\CCSSCCCCC(CCCCSSCC/C=C\CCCCCCCC)OC(=O)CCCN(C)C [Compound 31] | 6 to 7 | –
25 | CCCCC/C=C\CCCC/C=C\CCCCCC1(CCCCC/C=C\CCCC/C=C\CCCCC)OC[C@H](CCN(C)C)O1 [KC2-01, 2-((S)-2,2-di((6Z,12Z)-octadeca-6,12-dien-1-yl)-1,3-dioxolan-4-yl)-N,N-dimethylethan-1-amine] | – | % of parent lipid peak at time 0, 24 h [2]: 91 ± 0.3%; % of parent lipid peak at time 0, 48 h [2]: 87 ± 0.9%; % of parent lipid peak at time 0, 72 h [2]: 83 ± 0.3%
26 | CC/C=C\CCCC/C=C\CCCCCCCCC1(CCCCCCCC/C=C\CCCC/C=C\CC)OCC(CCN(C)C)O1 (stereo not drawn) [Compound 2] | 6 to 7 | –
27 | CCCCCC/C=C\CCCCCCCCC1(CCCCCCCC/C=C\CCCCCC)OCC(CCN(C)C)O1 (stereo not drawn) [Compound 4] | 6 to 7 | –
28 | CC/C=C\CCCC/C=C\CCCCCCCC(=O)OC[C@H](COP(=O)(OC)OCCCN(C)C)OC(=O)CCCCCCC/C=C\CCCC/C=C\CC (stereo partly drawn) [Compound 20] | 6 to 7 | –
29 | CCCCC/C=C\CCCC/C=C\CCCCCC1(CCCCC/C=C\CCCC/C=C\CCCCC)OCC(CCN(CC)CC)O1 (stereo not drawn) [Compound 6] | 6 to 7 | –

Now from value to compound, other results behind:

Row | pKa [1] | Structure (SMILES) | other results
30 | 6 to 7 | CC/C=C\CCCC/C=C\CCCCCCCC(=O)OC[C@H](CCCN(C)C)OC(=O)CCCCCCC/C=C\CCCC/C=C\CC [Compound 18] | –
31 | 6 to 7 | CCC/C=C\CCCC/C=C\CCCCC(=O)OC[C@H](CCN(CC)CC)OC(=O)CCCC/C=C\CCCC/C=C\CCC [Compound 24] | –
32 | 6 to 7 | CCC/C=C\CCCC/C=C\CCCCCC(CCCCC/C=C\CCCC/C=C\CCC)OC(=O)CCCN(CC)CC [Compound 16] | –
33 | 6 to 7 | CCCCC/C=C\CCCC/C=C\CCCCCC(CCCCC/C=C\CCCC/C=C\CCCCC)OC(=O)CCCCN(C)C [Compound 12] | –
34 | 6 to 7 | CCC/C=C\CCCC/C=C\CCCCCC(CCCCC/C=C\CCCC/C=C\CCC)OC(=O)CCCCN(C)C [Compound 15] | –
35 | 6 to 7 | CC/C=C\CCCC/C=C\CCCCCCCC(=O)OC[C@H](CCN(CC)CC)OC(=O)CCCCCCC/C=C\CCCC/C=C\CC [Compound 19] | –
36 | 6 to 7 | CCC/C=C\CCCC/C=C\CCCCCC1(CCCCC/C=C\CCCC/C=C\CCC)OCC(CCN(C)C)O1 (stereo not drawn) [Compound 5] | –
37 | 6 to 7 | CCC/C=C\CCCC/C=C\CCCCC(=O)OC[C@H](CCN(C)C)OC(=O)CCCC/C=C\CCCC/C=C\CCC [Compound 23] | –
38 | 6 to 7 | CCCCC/C=C\CCCC/C=C\CCCCCC(CCCCC/C=C\CCCC/C=C\CCCCC)OC(=O)CCCN(C)C [Compound 9] | –
39 | 6 to 7 | CC/C=C\CCCC/C=C\CCCCCCCCC(CCCCCCCC/C=C\CCCC/C=C\CC)OC(=O)CCCN(C)C [Compound 10] | –
40 | 6 to 7 | CC/C=C\CCCC/C=C\CCCCCCCC(=O)OC[C@H](CCN(C)C)OC(=O)CCCCCCC/C=C\CCCC/C=C\CC [Compound 17] | –
41 | 6 to 7 | CCC/C=C\CCCC/C=C\CCCCC(=O)OC[C@H](CCCN(C)C)OC(=O)CCCC/C=C\CCCC/C=C\CCC [Compound 25] | –
42 | 6 to 7 | CCC/C=C\CCCC/C=C\CCCCCC(CCCCC/C=C\CCCC/C=C\CCC)OC(=O)CCCN(C)C [Compound 14] | –
